Source: ChEMBL document CHEMBL2412981, “Syntheses of procyanidin B2 and B3 gallate derivatives using equimolar condensation mediated by Yb(OTf)3 and their antitumor activities” (Bioorg Med Chem Lett, 2013)
The source made the active and inactive calls. No cut-off for these calls is given here.

Tested on: PC-3
Experiment: Antiproliferative activity against human PC3 cells at 10 to 100 uM after 48 hrs by hemocytometric cell counting method
Type: functional, cell-based

`O=C(O[C@H]1[C@H](c2c(O)cc(O)c3c2O[C@H](c2ccc(O)c(O)c2)[C@@H](OC(=O)c2cc(O)c(O)c(O)c2)C3)c2c(O)cc(O)cc2O[C@@H]1c1ccc(O)c(O)c1)c1cc(O)c(O)c(O)c1` was tested, and the inhibition was “Active”.

In the case of `O=C(O[C@H]1Cc2c(O)cc(O)c([C@@H]3c4c(O)cc(O)cc4O[C@H](c4ccc(O)c(O)c4)[C@H]3O)c2O[C@@H]1c1ccc(O)c(O)c1)c1cc(O)c(O)c(O)c1`, the inhibition is reported as “Active”.

For `O=C(O[C@@H]1[C@@H](c2c(O)cc(O)c3c2O[C@H](c2ccc(O)c(O)c2)[C@H](O)C3)c2c(O)cc(O)cc2O[C@@H]1c1ccc(O)c(O)c1)c1cc(O)c(O)c(O)c1`, the inhibition was “Active”.

`O=C(O[C@H]1[C@H](c2c(O)cc(O)c3c2O[C@H](c2ccc(O)c(O)c2)[C@@H](O)C3)c2c(O)cc(O)cc2O[C@@H]1c1ccc(O)c(O)c1)c1cc(O)c(O)c(O)c1` was tested, and the inhibition was “Active”.

In the case of `O=C(O[C@@H]1Cc2c(O)cc(O)cc2O[C@@H]1c1cc(O)c(O)c(O)c1)c1cc(O)c(O)c(O)c1`, the inhibition is reported as “Active”.

In the case of `O=C(O[C@@H]1Cc2c(O)cc(O)c([C@H]3c4c(O)cc(O)cc4O[C@H](c4ccc(O)c(O)c4)[C@@H]3O)c2O[C@@H]1c1ccc(O)c(O)c1)c1cc(O)c(O)c(O)c1`, the inhibition is reported as “Active”.

With `Oc1cc(O)c2c(c1)O[C@H](c1cc(O)c(O)c(O)c1)[C@@H](O)[C@@H]2c1c(O)cc(O)c2c1O[C@H](c1cc(O)c(O)c(O)c1)[C@@H](O)C2` the inhibition was “Active”.

In the case of `O=C(O[C@@H]1[C@@H](c2c(O)cc(O)c3c2O[C@H](c2ccc(O)c(O)c2)[C@H](OC(=O)c2cc(O)c(O)c(O)c2)C3)c2c(O)cc(O)cc2O[C@@H]1c1ccc(O)c(O)c1)c1cc(O)c(O)c(O)c1`, the inhibition is reported as “Active”.
